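Exposure lasted 48 hours, with cells grown in 96-well plates and compounds tested at five concentrations. The concentration for 50% growth inhibition is given as GI50.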 Activity calls are given as the source filed them. Cut-off read from the data, not from the text of the source: active = GI50 up to about 1.1 µM and inactive = higher.
Legend:
Experiment in all cases: DTP human tumour cell line panel, 48 h
Malme-3M = system: Malme-3M
HOP-92 = system: HOP-92
COLO 205 = system: COLO 205
KM12 = system: KM12
SR = system: SR
SN12C = system: SN12C
SNB-19 = system: SNB-19
HT-29 = system: HT-29
TK-10 = system: TK-10
HL-60 = system: HL-60
SK-OV-3 = system: SK-OV-3
U-251 = system: U-251
SW-620 = system: SW-620
EKVX = system: EKVX
NCI-H226 = system: NCI-H226
A549 = system: A549
ACHN = system: ACHN
RPMI-8226 = system: RPMI-8226
OVCAR-5 = system: OVCAR-5
SF-295 = system: SF-295
A498 = system: A498
SF-268 = system: SF-268
Hs-578T = system: Hs-578T
LOX IMVI = system: LOX IMVI
SK-MEL-28 = system: SK-MEL-28
SF-539 = system: SF-539
OVCAR-4 = system: OVCAR-4
K562 = system: K562
RXF 393 = system: RXF 393
OVCAR-8 = system: OVCAR-8
CCRF-CEM = system: CCRF-CEM
NCI/ADR-RES = system: NCI/ADR-RES
HCT-15 = system: HCT-15
DU-145 = system: DU-145
HCT-116 = system: HCT-116
NCI-H460 = system: NCI-H460
UO-31 = system: UO-31
HOP-62 = system: HOP-62
T47D = system: T47D
SNB-75 = system: SNB-75
HCC 2998 = system: HCC 2998
786-0 = system: 786-0
M14 = system: M14
NCI-H23 = system: NCI-H23
MOLT-4 = system: MOLT-4
IGROV-1 = system: IGROV-1
MCF7 = system: MCF7
MDA-MB-435 = system: MDA-MB-435
UACC-257 = system: UACC-257
MDA-MB-231 = system: MDA-MB-231
SK-MEL-5 = system: SK-MEL-5
UACC-62 = system: UACC-62

CC(C)=C/C(CC(O)(C(F)(F)F)C(F)(F)F)=N\O was tested, and the GI50 (Malme-3M) was > 100 µM (inactive), the GI50 (HOP-92) was > 100 µM (inactive) and the GI50 (COLO 205) was > 100 µM (inactive). The GI50 (KM12) was > 100 µM (inactive), the GI50 (SR) was > 100 µM (inactive) and the GI50 (SN12C) was > 100 µM (inactive). The GI50 (SNB-19) was > 100 µM (inactive), the GI50 (HT-29) was > 100 µM (inactive) and the GI50 (TK-10) was > 100 µM (inactive). For the same molecule, the GI50 (HL-60) was > 100 µM (inactive), the GI50 (SK-OV-3) was > 100 µM (inactive) and the GI50 (U-251) was > 100 µM (inactive). The GI50 (SW-620) was > 100 µM (inactive), the GI50 (EKVX) was > 100 µM (inactive) and the GI50 (NCI-H226) was > 100 µM (inactive). For the same molecule, the GI50 (A549) was > 100 µM (inactive), the GI50 (ACHN) was > 100 µM (inactive) and the GI50 (RPMI-8226) was > 100 µM (inactive). For the same molecule, the GI50 (OVCAR-5) was > 100 µM (inactive), the GI50 (SF-295) was > 100 µM (inactive) and the GI50 (A498) was 50.9 µM (inactive). The GI50 (SF-268) was > 100 µM (inactive), the GI50 (Hs-578T) was > 100 µM (inactive) and the GI50 (LOX IMVI) was > 100 µM (inactive). For the same molecule, the GI50 (SK-MEL-28) was > 100 µM (inactive), the GI50 (SF-539) was > 100 µM (inactive) and the GI50 (OVCAR-4) was > 100 µM (inactive). For the same molecule, the GI50 (K562) was > 100 µM (inactive), the GI50 (RXF 393) was > 100 µM (inactive) and the GI50 (OVCAR-8) was > 100 µM (inactive). The GI50 (CCRF-CEM) was > 100 µM (inactive), the GI50 (NCI/ADR-RES) was > 100 µM (inactive) and the GI50 (HCT-15) was greater than 100 µM. For the same molecule, the GI50 (DU-145) was > 100 µM (inactive), the GI50 (HCT-116) was > 100 µM (inactive) and the GI50 (NCI-H460) was > 100 µM (inactive). For the same molecule, the GI50 (UO-31) was > 100 µM (inactive), the GI50 (HOP-62) was > 100 µM (inactive) and the GI50 (T47D) was > 100 µM (inactive). The GI50 (SNB-75) was > 100 µM (inactive), the GI50 (HCC 2998) was > 100 µM (inactive) and the GI50 (786-0) was > 100 µM (inactive). The GI50 (M14) was > 100 µM (inactive), the GI50 (NCI-H23) was > 100 µM (inactive) and the GI50 (MOLT-4) was > 100 µM (inactive). The GI50 (IGROV-1) was > 100 µM (inactive), the GI50 (MCF7) was > 100 µM (inactive) and the GI50 (MDA-MB-435) was > 100 µM (inactive). The GI50 (UACC-257) was > 100 µM (inactive), the GI50 (MDA-MB-231) was > 100 µM (inactive) and the GI50 (SK-MEL-5) was > 100 µM (inactive). The GI50 (UACC-62) was > 100 µM (inactive).
